Test system: NOMO1
Assay: cell viability relative to DMSO control; higher = less cytotoxic
Details: 48 h
Outline: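 Leukemia cells (NOMO1 or SEM, 500 cells/well; P12-Ichikawa, 1000 cells/well) were seeded in 5 μl in 1536-well plates after at least four passages of adaptation to each medium. They received library compounds in DMSO by pin dosing, 11 threefold points from 47 μM to 0.79 nM. Luminescence with CellTiter-Glo One was read after 48 h at 37°C. Viability is stated per plate relative to DMSO wells, with cell-free wells as background.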

[1] = RPMI 5 mM glucose + 10% FBS, 0.000781 µM
[2] = RPMI 5 mM glucose + 10% FBS, 0.00234 µM
[3] = RPMI 5 mM glucose + 10% FBS, 0.00702 µM
[4] = RPMI 5 mM glucose + 10% FBS, 0.0211 µM
[5] = RPMI 5 mM glucose + 10% FBS, 0.0632 µM
[6] = RPMI 5 mM glucose + 10% FBS, 0.19 µM
[7] = RPMI 5 mM glucose + 10% FBS, 0.569 µM
[8] = RPMI 5 mM glucose + 10% FBS, 1.71 µM
[9] = RPMI 5 mM glucose + 10% FBS, 5.12 µM
[10] = RPMI 5 mM glucose + 10% FBS, 15.4 µM
[11] = RPMI 5 mM glucose + 10% FBS, 46.1 µM
[12] = HPLM + 10% dialyzed FBS, 0.000781 µM
[13] = HPLM + 10% dialyzed FBS, 0.00234 µM
[14] = HPLM + 10% dialyzed FBS, 0.00702 µM
[15] = HPLM + 10% dialyzed FBS, 0.0211 µM
[16] = HPLM + 10% dialyzed FBS, 0.0632 µM
[17] = HPLM + 10% dialyzed FBS, 0.19 µM
[18] = HPLM + 10% dialyzed FBS, 0.569 µM
[19] = HPLM + 10% dialyzed FBS, 1.71 µM
[20] = HPLM + 10% dialyzed FBS, 5.12 µM
[21] = HPLM + 10% dialyzed FBS, 15.4 µM
[22] = HPLM + 10% dialyzed FBS, 46.1 µM
[23] = RPMI 5 mM glucose + 10% dialyzed FBS, 0.000781 µM
[24] = RPMI 5 mM glucose + 10% dialyzed FBS, 0.00234 µM
[25] = RPMI 5 mM glucose + 10% dialyzed FBS, 0.00702 µM
[26] = RPMI 5 mM glucose + 10% dialyzed FBS, 0.0211 µM
[27] = RPMI 5 mM glucose + 10% dialyzed FBS, 0.0632 µM
[28] = RPMI 5 mM glucose + 10% dialyzed FBS, 0.19 µM
[29] = RPMI 5 mM glucose + 10% dialyzed FBS, 0.569 µM
[30] = RPMI 5 mM glucose + 10% dialyzed FBS, 1.71 µM
[31] = RPMI 5 mM glucose + 10% dialyzed FBS, 5.12 µM
[32] = RPMI 5 mM glucose + 10% dialyzed FBS, 15.4 µM
[33] = RPMI 5 mM glucose + 10% dialyzed FBS, 46.1 µM

Row | SMILES | cell viability [1] | cell viability [2] | cell viability [3] | cell viability [4] | cell viability [5] | cell viability [6] | cell viability [7] | cell viability [8] | cell viability [9] | cell viability [10] | cell viability [11] | cell viability [12] | cell viability [13] | cell viability [14] | cell viability [15] | cell viability [16] | cell viability [17] | cell viability [18] | cell viability [19] | cell viability [20] | cell viability [21] | cell viability [22] | cell viability [23] | cell viability [24] | cell viability [25] | cell viability [26] | cell viability [27] | cell viability [28] | cell viability [29] | cell viability [30] | cell viability [31] | cell viability [32] | cell viability [33]
1 | N#Cc1ccc(Oc2ccc3c(c2)COB3O)cc1 | 122% | 132% | 119% | 120% | 150% | 137% | 144% | 126% | 133% | 129% | 57.3% | – | – | – | – | – | – | – | – | – | – | – | – | – | – | – | – | – | – | – | – | – | –
2 | O=C(CCCCCCC(=O)Nc1cccnc1)NO | 83.6% | 91.2% | 98% | 84.1% | 84.9% | 91.8% | 100% | 83.6% | 84.3% | 72.8% | 12.3% | 92.3% | 108% | 105% | 101% | 114% | 91.1% | 108% | 109% | 91.3% | 70.5% | 8.89% | 101% | 92.3% | 93.9% | 93.1% | 101% | 102% | 110% | 85.1% | 95.4% | 74.1% | 12.7%
3 | Cc1ccccc1C(OCCN(C)C)c1ccccc1 (configuration not stated) | 121% | 112% | 120% | 120% | 120% | 115% | 125% | 125% | 127% | 117% | 116% | 102% | 117% | 145% | 138% | 135% | 143% | 142% | 122% | 116% | 125% | 57.5% | – | – | – | – | – | – | – | – | – | – | –
4 | CC(C)(S)[C@@H](N)C(=O)O | 103% | 106% | 113% | 103% | 118% | 115% | 103% | 105% | 115% | 111% | 106% | 111% | 118% | 97.1% | 136% | 132% | 111% | 109% | 133% | 114% | 128% | 80.6% | 97.5% | 94.7% | 112% | 115% | 124% | 117% | 108% | 118% | 118% | 108% | 62.1%
5 | c1ccc2c(Cc3c[nH]c4ccccc34)c[nH]c2c1 | 89.8% | 98.3% | 87.8% | 101% | 97.7% | 86.8% | 96.1% | 89.8% | 85.2% | 85.8% | 78.9% | 95% | 106% | 108% | 93.6% | 112% | 112% | 95.5% | 89.7% | 87.4% | 80.4% | 54% | 99% | 92% | 106% | 104% | 93.3% | 97.7% | 93.2% | 94.2% | 88.5% | 84% | 57.1%
6 | COc1cccc2c1C(=O)c1c(O)c3c(c(O)c1C2=O)C[C@@](O)(C(=O)CO)C[C@@H]3O[C@H]1C[C@H](N)[C@H](O[C@H]2CCCCO2)[C@H](C)O1 | 120% | 128% | 122% | 128% | 114% | 128% | 123% | 125% | 22.9% | 124% | 101% | 124% | 106% | 100% | 135% | 117% | 116% | 117% | 108% | 43% | 113% | 63% | 119% | 116% | 121% | 115% | 104% | 124% | 106% | 123% | 41.7% | 110% | 102%
7 | CC(NC(C)(C)C)C(=O)c1cccc(Cl)c1 (configuration not stated) | 112% | 124% | 115% | 120% | 133% | 127% | 113% | 115% | 119% | 128% | 113% | – | – | – | – | – | – | – | – | – | – | – | – | – | – | – | – | – | – | – | – | – | –
8 | COc1cc([C@@H](CC(=O)O)c2ccc(C)c(CN3C[C@@H](C)Oc4ccccc4[S+]3(=O)[O-])c2)cc2nnn(C)c12 | 114% | 117% | 117% | 98.7% | 97.1% | 102% | 104% | 99.3% | 92.4% | 90.3% | 91.1% | 123% | 120% | 111% | 121% | 110% | 118% | 96.8% | 119% | 66.6% | 30.3% | 26.5% | 102% | 118% | 116% | 104% | 113% | 99.5% | 100% | 101% | 86.2% | 79.6% | 75.4%
9 | [O-]C(=O)C/1=N/C(=O)NC(=O)N1 | 93.5% | 96.8% | 99.9% | 88.9% | 92.8% | 91.8% | 86.3% | 91.3% | 85.4% | 80.9% | 93.1% | 87.7% | 108% | 92.9% | 96.9% | 101% | 95.1% | 86.3% | 96.9% | 85.4% | 83.4% | 88.9% | 90.2% | 93.2% | 88.2% | 86.2% | 90.8% | 92.8% | 81.1% | 78.5% | 79.9% | 77% | 81.8%

Source: the supplement of paper PMC11451515
